Laboratory results published in PubChem BioAssay AID608 (Sanford-Burnham Center for Chemical Genomics, 2007).
Activity calls are given as the source filed them. How the calls were made is not given here.

biological target: Peptidyl-prolyl cis-trans isomerase FKBP1A (Homo sapiens) (UniProt P62942); test: FKBP12 binders, biophysical, NMR detection (AID 608); conditions: NMR binding, purified FKBP12
Sequence (P62942 whole entry, looked up): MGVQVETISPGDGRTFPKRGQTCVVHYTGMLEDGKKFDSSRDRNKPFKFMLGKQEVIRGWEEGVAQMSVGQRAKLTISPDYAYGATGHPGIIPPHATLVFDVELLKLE

SMILES | Kd
C[C@@H]1CC[C@@]2(OC1)O[C@H]1CC3C4CC[C@H]5C[C@@H](O)CC[C@]5(C)C4CC[C@]3(C)[C@H]1[C@@H]2C (stereo partly specified) | > 4 mM (inactive)
NC1CN2CCC1CC2 (stereo unspecified) | > 4 mM (inactive)
Cc1ccc(NC(=O)CN2C(=O)CSC2=O)cc1 | > 4 mM (inactive)
C=C1CCC(=O)C(C)CCC2C1CC2(C)C (stereo unspecified) | > 4 mM (inactive)
CCOc1ccc(-c2c(=O)n(O)c3ccccc3[n+]2[O-])cc1 | > 4 mM (inactive)
Cc1occc1C(=O)Nc1nnc(C2CCCCC2)s1 | > 4 mM (inactive)
COc1ccc2cc1Oc1ccc(cc1)C[C@H]1c3cc(c(OC)cc3CCN1C)Oc1c(OC)c(OC)cc3c1[C@H](C2)N(C)CC3 | > 4 mM (inactive)
COC(=O)c1cccc2cc[nH]c12 | > 4 mM (inactive)
N#CCN1C(=O)c2ccccc2S1(=O)=O | > 4 mM (inactive)
O=c1[nH]cc(NCc2ccco2)c(=O)[nH]1 | > 4 mM (inactive)
Cc1sc2nc(SCC(=O)N(C)C)[nH]c(=O)c2c1C | > 4 mM (inactive)
Cc1ncoc1C(=O)Nc1ncc([N+](=O)[O-])s1 | > 4 mM (inactive)
COCC(=O)Nc1cc2c3c(c1)CCN3C(=O)CC2 | > 4 mM (inactive)
O=C(/C=C/c1ccccc1)c1ccc(O)cc1 | > 4 mM (inactive)
NC(=O)C1CCN(C(=S)Nc2ccccc2)CC1 | > 4 mM (inactive)
COc1ccc(NC(=O)C2CC(=O)N=C(N)S2)cc1 (stereo unspecified) | > 4 mM (inactive)
NC(=O)CN1CCCCCC1=O | > 4 mM (inactive)
Nc1c(/C=C2\C=Nc3ccccc32)c(=O)nc2scnn12 | > 4 mM (inactive)
CN1CCC(=NNC(=O)c2ccco2)CC1 | > 4 mM (inactive)
COc1ccccc1NC(=O)C1CCC(=O)N1 (stereo unspecified) | > 4 mM (inactive)
Nc1ccc(F)cc1F | > 4 mM (inactive)
O=C(CSc1ccnc(=O)[nH]1)NCc1ccco1 | > 4 mM (inactive)
Cc1nnsc1C(=O)Nc1ccccc1[N+](=O)[O-] | > 4 mM (inactive)

SMILES | Kd
Cc1ccc(NC(=O)C2CCN(S(C)(=O)=O)CC2)cc1 | > 4 mM (inactive)
O=C(O)c1scc2c1CCCC2 | > 4 mM (inactive)
Fc1ccc(CN2CCCNCC2)cc1 | > 4 mM (inactive)
O=NN1C(=O)c2ccccc2C1=O | > 4 mM (inactive)
CC(=O)Oc1cccc2ccc(=O)[nH]c12 | > 4 mM (inactive)
Cc1cc(C)cc(NS(=O)(=O)N2CCCCC2)c1 | inactive
Nc1cccc(C(=O)c2ccccc2)c1 | > 4 mM (inactive)
Cc1oc(-c2ccccc2)nc1CCO | > 4 mM (inactive)
COc1cc(/C=C2\SC(=S)NC2=O)ccc1O | > 4 mM (inactive)
COc1ccc2c(=O)c(CC(=O)O)coc2c1 | > 4 mM (inactive)
COc1cc(O)c2c(=O)cc(-c3ccc(OC)c(-c4c(O)cc(O)c5c(=O)cc(-c6ccc(O)cc6)oc45)c3)oc2c1 | > 4 mM (inactive)
Cn1cnc2cc(NC(=O)c3ccco3)ccc21 | > 4 mM (inactive)
O=C(CSc1cccc2cccnc12)N1CCOCC1 | inactive
Cc1cc(C(=O)Nc2sc(C)c(C)c2C#N)c(C)o1 | > 4 mM (inactive)
O=C1CCC(C(=O)NCc2cccnc2)N1 (stereo unspecified) | > 4 mM (inactive)
CC(=O)N1CCN(c2ccc(N)cc2)CC1 | > 4 mM (inactive)
Cc1ccccc1NC(=S)NCCO | > 4 mM (inactive)
O=C1NC(=O)C(Cc2ccccc2)C(=O)N1 | > 4 mM (inactive)
Nc1ccc2nccnc2c1 | > 4 mM (inactive)
NC(=O)c1ccc(N2CCCCC2)c(N)c1 | > 4 mM (inactive)
O=C(O)c1ccc(-n2ccnc2)cc1 | > 4 mM (inactive)
c1ccc(Cc2nnc(-c3ccccc3)o2)cc1 | > 4 mM (inactive)
c1ccc(Cc2nnc3sc(-c4cccnc4)nn23)cc1 | > 4 mM (inactive)
